Assay results as given in patent US10376498B2, “3-alkyl pyridinium compound from red sea sponge with potent antiviral activity” (priority 2014, dated 2019).

These compounds were tested against T1, West Nile Virus NS3 protease (West Nile virus, UniProt P06935, DELINS1467-1501GGGGSGGGG) (assay: West Nile Virus NS3 protease inhibition assay (SensoLyte 440 kit)). Conditions: LOPAC compounds clustering with fraction 2.
T1 construct: truncated form of West Nile NS3 protease (residues 1-186); purchased AnaSep (AnaSpec), San Jose, Calif., USA
T1 sequence (P06935 with tags, fused parts or gaps DELINS1467-1501GGGGSGGGG): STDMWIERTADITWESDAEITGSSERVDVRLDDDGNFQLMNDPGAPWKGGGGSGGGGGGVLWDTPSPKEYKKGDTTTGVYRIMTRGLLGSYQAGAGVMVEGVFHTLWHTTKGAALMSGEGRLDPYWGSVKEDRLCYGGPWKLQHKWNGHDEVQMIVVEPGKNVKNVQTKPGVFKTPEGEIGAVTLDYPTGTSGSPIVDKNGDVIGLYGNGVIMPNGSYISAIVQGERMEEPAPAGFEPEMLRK
Type: biochemical
Experimental: The SPE fraction was further fractionated in order to isolate the prominent peaks identified by LC-MS using the technique of HPLC and determined retention times.
The West Nile Virus NS3 protease inhibition assay was carried out using the commercial kit SensoLyte® 440 West Nile Virus Protease Assay Kit (AnaSep, San Jose, Calif., USA). The protease is a truncated form of West Nile NS3 protease (residues 1-186) connected to it is NS2B cofactor (residues 49-96) by the linker sequence, […]. Protease activity was assessed by its ability to cleave the fluorogenic peptide Pyr-RTKRAMC, and the subsequent production of free AMC (7-amino-4-methylcoumarin) fluorophores. All extracts and controls were performed with three replicates in a 384-well plate format, each with a total reaction mixture of 33 μl. To begin, the test extracts and protease solution were incubated at 37° C. for 10 min before the addition of the pre-heated substrate. After substrate addition and gentle mixing the reaction was incubated at 37° C. for one hour. The fluorophore was detected with the use of a SpectraMax® Paradigm® Multimode Microplate Detection Platform (Molecular Devices, Sunnyvale, Calif., USA) by scanning at 354 nm excitation wavelength and 442 n emission wavelength.

| Compound | inhibition of the WNV NS protease (in words) |
| --- | --- |
| C[C@]12C[C@H](O)[C@H]3[C@@H](CCC4=CC(=O)CC[C@@]43C)[C@@H]1CC[C@@H]2C(=O)CO (single isomer, unassigned) [Corticosterone] | no inhibition |
| CCN1/C(=C/C(C)=O)Sc2ccc(OC)cc21 [TG003] | no inhibition |
| Clc1nccc2c1ccc1ccccc12 [CBIQ] | no inhibition |
| C[C@@H]1C(=O)NC2=Nc3cccc(Cl)c3CN21 [Quazinone] | no inhibition |
| O.O.O=c1c(O)c(-c2ccc(O)c(O)c2)oc2cc(O)cc(O)c12 [Quercetin dehydrate] | no inhibition |
